Experimental data published in patent publication US10457655B2, “Compounds and compositions for inhibition of FASN” (FORMA Therapeutics, Inc., priority 2013, dated 2019).

target: FASN enzyme (Homo sapiens, UniProt P49327); assay: Enzymatic Assay for FASN Inhibitors; type: biochemical; settings: not given
Procedure, shortened: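 40 nM FASN preincubated with compound 60 min at 25° C in HEPES pH 7.3 buffer with 0.04% Triton X-100. Then 20 μM acetyl-CoA, 60 μM malonyl-CoA and 100 μM NADPH added for 90 min, quenched with CPM thiol probe; fluorescence 360/530 nm, IC50 by four-parameter fit.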

Chain of FASN enzyme (P49327 whole entry): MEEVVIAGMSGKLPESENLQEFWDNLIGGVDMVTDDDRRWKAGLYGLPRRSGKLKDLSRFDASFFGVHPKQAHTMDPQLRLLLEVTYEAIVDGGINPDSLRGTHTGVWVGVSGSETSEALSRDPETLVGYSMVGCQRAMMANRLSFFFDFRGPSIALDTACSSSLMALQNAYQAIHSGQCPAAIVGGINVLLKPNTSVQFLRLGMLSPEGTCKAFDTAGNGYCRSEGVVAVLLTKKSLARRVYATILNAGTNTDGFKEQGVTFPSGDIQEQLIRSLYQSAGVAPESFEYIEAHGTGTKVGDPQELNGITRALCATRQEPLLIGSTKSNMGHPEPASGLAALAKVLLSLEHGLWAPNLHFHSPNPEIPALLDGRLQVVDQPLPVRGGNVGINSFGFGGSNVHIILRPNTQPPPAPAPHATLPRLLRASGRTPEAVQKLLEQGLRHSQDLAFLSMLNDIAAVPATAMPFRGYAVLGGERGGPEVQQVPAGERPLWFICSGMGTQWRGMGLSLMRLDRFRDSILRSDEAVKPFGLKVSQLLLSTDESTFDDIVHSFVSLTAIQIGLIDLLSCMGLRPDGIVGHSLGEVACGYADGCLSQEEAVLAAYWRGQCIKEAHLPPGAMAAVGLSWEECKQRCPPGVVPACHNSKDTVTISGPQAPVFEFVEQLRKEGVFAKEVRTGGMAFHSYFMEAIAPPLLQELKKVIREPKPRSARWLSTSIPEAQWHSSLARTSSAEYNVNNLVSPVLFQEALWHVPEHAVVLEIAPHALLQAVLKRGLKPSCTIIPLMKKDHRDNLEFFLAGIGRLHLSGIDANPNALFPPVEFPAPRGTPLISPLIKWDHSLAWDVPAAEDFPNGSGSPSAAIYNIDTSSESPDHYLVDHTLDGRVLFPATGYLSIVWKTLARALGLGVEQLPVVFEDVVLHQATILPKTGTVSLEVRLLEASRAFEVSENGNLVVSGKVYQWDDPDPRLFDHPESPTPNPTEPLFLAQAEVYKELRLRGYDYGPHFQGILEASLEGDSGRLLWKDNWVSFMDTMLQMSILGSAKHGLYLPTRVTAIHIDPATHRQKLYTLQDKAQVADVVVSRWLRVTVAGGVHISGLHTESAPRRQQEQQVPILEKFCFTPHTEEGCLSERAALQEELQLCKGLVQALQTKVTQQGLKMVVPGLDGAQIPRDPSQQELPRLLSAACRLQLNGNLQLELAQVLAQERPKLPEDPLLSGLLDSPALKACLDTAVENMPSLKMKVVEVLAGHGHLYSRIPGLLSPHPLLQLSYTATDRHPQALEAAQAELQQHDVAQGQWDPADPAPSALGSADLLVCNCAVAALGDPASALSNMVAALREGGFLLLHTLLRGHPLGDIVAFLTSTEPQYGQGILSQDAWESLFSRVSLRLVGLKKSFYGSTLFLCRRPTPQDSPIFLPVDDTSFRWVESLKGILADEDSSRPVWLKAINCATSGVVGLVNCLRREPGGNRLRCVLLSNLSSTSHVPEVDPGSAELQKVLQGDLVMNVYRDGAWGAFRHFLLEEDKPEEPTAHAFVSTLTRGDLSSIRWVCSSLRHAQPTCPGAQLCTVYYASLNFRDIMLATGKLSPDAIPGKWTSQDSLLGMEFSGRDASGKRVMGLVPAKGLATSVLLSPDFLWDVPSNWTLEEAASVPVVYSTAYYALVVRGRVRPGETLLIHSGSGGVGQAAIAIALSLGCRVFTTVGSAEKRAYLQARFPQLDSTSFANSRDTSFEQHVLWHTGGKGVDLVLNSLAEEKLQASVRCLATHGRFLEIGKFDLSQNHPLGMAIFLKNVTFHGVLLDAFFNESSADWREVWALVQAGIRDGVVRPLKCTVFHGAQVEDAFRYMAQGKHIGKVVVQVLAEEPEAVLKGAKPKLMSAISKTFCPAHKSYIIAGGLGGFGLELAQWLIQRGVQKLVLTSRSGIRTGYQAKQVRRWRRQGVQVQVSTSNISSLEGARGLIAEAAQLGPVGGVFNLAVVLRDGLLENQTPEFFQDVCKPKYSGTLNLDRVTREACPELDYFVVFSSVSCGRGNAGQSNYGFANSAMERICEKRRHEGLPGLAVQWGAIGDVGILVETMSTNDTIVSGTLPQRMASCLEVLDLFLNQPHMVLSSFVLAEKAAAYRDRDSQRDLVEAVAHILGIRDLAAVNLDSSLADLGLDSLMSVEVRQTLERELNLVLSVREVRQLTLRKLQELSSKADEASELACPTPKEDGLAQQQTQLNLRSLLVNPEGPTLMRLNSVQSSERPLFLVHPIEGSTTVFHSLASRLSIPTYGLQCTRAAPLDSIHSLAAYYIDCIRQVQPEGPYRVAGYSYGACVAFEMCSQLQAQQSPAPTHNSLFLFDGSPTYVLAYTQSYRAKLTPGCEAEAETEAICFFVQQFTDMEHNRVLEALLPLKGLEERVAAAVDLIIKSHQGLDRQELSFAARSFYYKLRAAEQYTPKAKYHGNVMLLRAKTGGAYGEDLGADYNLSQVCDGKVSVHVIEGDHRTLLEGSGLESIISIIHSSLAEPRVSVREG

SMILES	IC50
O=C(c1ccc(-c2ccc(Cl)c(F)c2)cc1)N1CCN(C(=O)C2(O)CC2)CC1 [1-[(4-{[4-(4-chloro-3-fluorophenyl)phenyl]carbonyl}piperazin-1-yl)carbonyl]cyclopropan-1-ol]	< 500 nM
O=C(c1ccc(-c2cc(F)c3[nH]ccc3c2)cc1)N1CCN(C(=O)C2(O)CC2)CC1	< 500 nM
Cn1nnc2cc(-c3ccc(C(=O)N4CCN(C(=O)C5(O)CC5)CC4)cc3)c(F)cc21 [1-{4-[4-(6-fluoro-1-methyl-1H-1,2,3-benzotriazol-5-yl)benzoyl]piperazine-1-carbonyl}cyclopropan-1-ol]	< 500 nM
Cc1nn(C)c2ccc(-c3ccc(C(=O)N4CCN(C(=O)C5CCO5)CC4)cc3)cc12 (stereo not drawn)	< 500 nM
Cc1nc2cc(Cl)cc(-c3ccc(C(=O)N4CCN(C(=O)C5(O)CC5)CC4)cc3)c2[nH]1	< 500 nM
O=C(c1ccc(-c2cccc3ocnc23)cc1)N1CCN(C(=O)C2(O)CC2)CC1 [1-[(4-{[4-(1,3-benzoxazol-4-yl)phenyl]carbonyl}piperazin-1-yl)carbonyl]cyclopropan-1-ol]	< 500 nM
O=C(c1ccc(-c2ccc(Cl)cc2)cc1)N1CCN(C(=O)C2(O)CC2)CC1	< 500 nM
Cc1nn(C)c2ccc(-c3ccc(C(=O)N4CCN(C(=O)C5(N)CCC5)CC4)cc3)cc12 [1-{4-[4-(1,3-dimethyl-1H-indazol-5-yl)benzoyl]piperazine-1-carbonyl}cyclobutan-1-amine]	< 500 nM

Continued, values first:

IC50	SMILES
< 500 nM	O=C(c1ccc(-c2ccc3[nH]c(CO)nc3c2)cc1)N1CCN(C(=O)C2(O)CC2)CC1 [1-(4-{4-[2-(hydroxymethyl)-1H-1,3-benzodiazol-5-yl]benzoyl}piperazine-1-carbonyl)cyclopropan-1-ol]
< 500 nM	Cc1[nH]c2ccccc2c1-c1ccc(C(=O)N2CCN(C(=O)C3(O)CC3)CC2)cc1 [1-{4-[4-(2-methyl-1H-indol-3-yl)benzoyl]piperazine-1-carbonyl}cyclopropan-1-ol]
< 500 nM	O=C(c1ccc(-n2ncc3ccccc32)cc1)N1CCN(C(=O)C2(O)CC2)CC1 [1-{4-[4-(1H-indazol-1-yl)benzoyl]piperazine-1-carbonyl}cyclopropan-1-ol]
< 500 nM	Cc1nn(C)c2ccc(-c3ccc(C(=O)N4CCN(C(=O)C5(O)CC5)CC4)c(F)c3)cc12 [1-{4-[4-(1,3-dimethyl-1H-indazol-5-yl)-2-fluorobenzoyl]piperazine-1-carbonyl}cyclopropan-1-ol]
< 500 nM	Cc1c2ccccc2nn1-c1ccc(C(=O)N2CCN(C(=O)C3(O)CC3)CC2)cc1 [1-{4-[4-(3-methyl-2H-indazol-2-yl)benzoyl]piperazine-1-carbonyl}cyclopropan-1-ol]
< 500 nM	O=C(c1ccc(-c2ccc3c(cnn3C3CC3)c2)cc1)N1CCN(C(=O)C2(O)CC2)CC1 [1-{4-[4-(1-cyclopropyl-1H-indazol-5-yl)benzoyl]piperazine-1-carbonyl}cyclopropan-1-ol]
< 500 nM	C[C@@H]1CN(C(=O)C2(O)CC2)CCN1C(=O)c1ccc(-c2nc3ccc(F)cc3o2)cc1 [1-[(3R)-4-[4-(6-fluoro-1,3-benzoxazol-2-yl)benzoyl]-3-methylpiperazine-1-carbonyl]cyclopropan-1-ol]
< 500 nM	Cc1n[nH]c2c(-c3ccc(C(=O)N4CCN(C(=O)C5(O)CC5)CC4)cc3)cccc12 [1-{4-[4-(3-methyl-1H-indazol-7-yl)benzoyl]piperazine-1-carbonyl}cyclopropan-1-ol]

same assay, conditions: FASN enzymatic assay; Table 2-2

SMILES	IC50
COc1cc(-c2cnc3ccccc3c2)ccc1C(=O)N1CCN(C(=O)C2(O)CC2)CC1 [1-[(4-{[2-methoxy-4-(quinolin-3-yl)phenyl]carbonyl}piperazin-1-yl)carbonyl]cyclopropan-1-ol]	500 to 5000 nM

same assay, conditions: FASN enzymatic assay; Table 2-3

SMILES	IC50
COc1ccc(-c2ccc(C(=O)N3CCN(C(=O)C4(O)CC4)CC3)cc2)c(OC)n1 [1-[(4-{[4-(2,6-dimethoxypyridin-3-yl)phenyl]carbonyl}piperazin-1-yl)carbonyl]cyclopropan-1-ol]	≥ 5000 nM
